According to ChEMBL document CHEMBL3046544, “Inhibitory Activity of N-Substituted-2-piperidones with a 1, 4-Benzodioxan Ring on Germination of Barnyardgrass” (J Pestic Sci, 2001):

Experiments:
[1] = test system: Echinochloa esculenta; assay: Herbicidal activity against Echinochloa esculenta assessed as inhibition of seed germination at 0.1 nM after 5 days relative to control; format: functional; conditions: 120 h
[2] = test system: Echinochloa esculenta; assay: Herbicidal activity against Echinochloa esculenta assessed as inhibition of seed germination at 1 nM after 5 days relative to control; format: functional; conditions: 120 h
[3] = test system: Echinochloa esculenta; assay: Herbicidal activity against Echinochloa esculenta assessed as inhibition of seed germination at 10 nM after 5 days relative to control; format: functional; conditions: 120 h
[4] = test system: Echinochloa esculenta; assay: Herbicidal activity against Echinochloa esculenta assessed as inhibition of seed germination at 1000 nM after 5 days relative to control; format: functional; conditions: 120 h
[5] = test system: Echinochloa esculenta; assay: Herbicidal activity against Echinochloa esculenta assessed as inhibition of seed germination at 100 nM after 5 days relative to control; format: functional; conditions: 120 h
[6] = test system: Oryza sativa; assay: Herbicidal activity against Oryza sativa (rice) assessed as inhibition of seed germination after 7 days relative to control; format: functional, organism-based; conditions: 168 h
[7] = test system: Echinochloa esculenta; assay: Herbicidal activity against Echinochloa esculenta assessed as inhibition of seed germination after 5 days relative to control; format: functional, organism-based; conditions: 120 h
[8] = test system: Oryza sativa; assay: Herbicidal activity against Oryza sativa (rice) assessed as inhibition of seed germination at > 90 nM after 7 days relative to control; format: functional, organism-based; conditions: 168 h

Row | Compound | inhibition at 0.0001 µM [1] [%] | inhibition at 0.001 µM [2] [%] | inhibition at 0.01 µM [3] [%] | inhibition at 1 µM [4] [%] | inhibition at 0.1 µM [5] [%] | IC50 [6] [nM] | IC50 [7] [nM] | IC50 [8] [nM]
1 | C=CCN1CCCC(C(O)c2ccc3c(c2)OCCO3)C1=O (mixture of isomers) | < 49 | < 49 | < 49 | 50 | < 49 |  |  | 
2 | O=C1[C@@H]([C@@H](O)c2ccc3c(c2)OCCO3)CCCN1C/C=C/c1ccccc1 (relative stereo) |  |  |  |  |  | 8.1 | 0.8 | 
3 | O=C1NCCCC1C(O)c1ccc2c(c1)OCCO2 (mixture of isomers) | < 49 | < 49 | < 49 | > 90 | < 49 |  |  | 
4 | O=C1[C@H]([C@@H](O)c2ccc3c(c2)OCCO3)CCCN1C/C=C/c1ccccc1 (relative stereo) |  |  |  |  |  | > 1000 | > 1000 | 
5 | O=C1C(C(O)c2ccc3c(c2)OCCO3)CCCN1Cc1ccccc1 (mixture of isomers) |  | < 49 | > 90 | > 90 | > 90 | > 90 | 8.8 | 10
6 | O=C1[C@@H]([C@@H](O)c2ccc3c(c2)OCCO3)CCCN1Cc1ccccc1 (relative stereo) |  |  |  |  |  | > 90 | 4.5 | 30
7 | O=C1C(C(O)c2ccc3c(c2)OCCO3)CCCN1/C=C/c1ccccc1 (mixture of isomers) | < 49 | < 49 | 50 | > 90 | > 90 |  |  | 
8 | O=C1C(C(O)c2ccc3c(c2)OCCO3)CCCN1c1ccccc1 (mixture of isomers) | < 49 | < 49 | < 49 | < 49 | < 49 |  |  | 
9 | O=C1C(C(O)c2ccc3c(c2)OCCO3)CCCN1CC=C(c1ccccc1)c1ccccc1 (mixture of isomers) | < 49 | < 49 | > 90 | > 90 | > 90 |  |  | 
10 | COc1ccc(C(O)C2CCCN(Cc3ccccc3)C2=O)cc1 (mixture of isomers) |  | < 49 | < 49 | > 90 | < 49 |  |  | 
11 | O=C1C(C(O)C/C=C/c2ccccc2)CCCN1Cc1ccccc1 (mixture of isomers) |  | < 49 | < 49 | 50 | 50 |  |  | 
12 | O=C1C(C(O)c2ccc3c(c2)OCCO3)CCCN1C/C=C/c1ccccc1 (mixture of isomers) | < 49 | < 49 | > 90 | > 90 | > 90 | > 90 | 1.4 | 25
13 | CC(C)CCC(O)C1CCCN(Cc2ccccc2)C1=O (mixture of isomers) |  | < 49 | < 49 | 50 | 50 |  |  | 
14 | O=C1[C@H]([C@@H](O)c2ccc3c(c2)OCCO3)CCCN1Cc1ccccc1 (relative stereo) |  |  |  |  |  | > 1000 | > 1000 | 
